# Experimental data from patent US20250026752A1, “POSITIVE ALLOSTERIC MODULATORS OF THE MUSCARINIC ACETYLCHOLINE RECEPTOR M4” (Vanderbilt University, priority 2021, published 2025).
# Experiments:
# human mAChR M4 = biological target: T1, human mAChR M4 (Homo sapiens, UniProt P08173); assay: mAChR M4 cell-based functional assay: calcium flux (Fluo-4, FDSS), positive allosteric modulator activity on the EC20 acetylcholine response, hM4-Gqi5 CHO-K1 cells; conditions: for Emax at 30 µM: CHO-K1, human M4, % ACh maximum at 30 μM; for EC50: human M4, PAM activity on EC20 acetylcholine response, calcium flux, read-out: Human M4 EC50
# T1 construct: expressed in transfected cells; host or cells: CHO-K1 (ATCC), stably expressing hM4 and Gqi5
# T1 sequence (P08173 1-479): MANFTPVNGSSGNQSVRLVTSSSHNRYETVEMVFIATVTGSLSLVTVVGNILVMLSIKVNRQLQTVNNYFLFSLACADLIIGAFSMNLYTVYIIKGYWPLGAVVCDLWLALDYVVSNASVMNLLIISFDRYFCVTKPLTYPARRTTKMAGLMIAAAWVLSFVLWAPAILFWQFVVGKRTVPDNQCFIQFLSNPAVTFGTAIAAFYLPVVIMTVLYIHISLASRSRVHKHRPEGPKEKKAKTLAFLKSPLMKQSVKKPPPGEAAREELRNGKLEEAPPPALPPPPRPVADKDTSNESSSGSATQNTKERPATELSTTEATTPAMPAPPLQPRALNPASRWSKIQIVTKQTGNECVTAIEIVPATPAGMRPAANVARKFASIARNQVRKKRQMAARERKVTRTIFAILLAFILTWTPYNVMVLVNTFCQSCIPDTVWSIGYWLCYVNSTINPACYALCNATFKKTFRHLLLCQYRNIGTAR
# Summary of the method: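 Potentiation was taken as the concentration-dependent rise in the EC20 acetylcholine calcium response, fitted by a four-parameter logistic with EC20 as baseline. Fluo-4-loaded hM4-Gqi5 CHO-K1 cells received 11-point, threefold-diluted compound before acetylcholine at 144 s; FDSS read at 1 Hz.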
# [1] = hepatotoxicity of AChE inhibitors; cited from earlier work
# [2] = without causing catalepsy; cited from earlier work
# [3] = Alzheimer's disease patients; cited from earlier work
Compound,Emax at 30 µM (human mAChR M4) [%],EC50 (human mAChR M4) [nM],elevated liver transaminases observed in patients [1],activity in animal models with profiles similar to known antipsychotic drugs [2],"effect on psychotic behavioral symptoms (delusions, suspiciousness, vocal outbursts, hallucinations) [3]"
"Cc1cc(F)c(F)cc1-c1cnc2c(c1)CN(c1ncnc3ccc(F)cc13)CC2 [Compound 306, 4-(3-(4,5-difluoro-2-methylphenyl)-7,8-dihydro-1,6-naphthyridin-6(5H)-yl)-6-fluoroquinazoline]",69,5500,–,–,–
"Cc1nc(N2CCc3ncc(-c4cc(F)c(F)cc4C)cc3C2)c2cc(F)ccc2n1 [Compound 307, 4-(3-(4,5-difluoro-2-methylphenyl)-7,8-dihydro-1,6-naphthyridin-6(5H)-yl)-6-fluoro-2-methylquinazoline]",54,3730,–,–,–
"Cc1ccc2ncnc(N3CCc4ncc(-c5cnc(F)cc5C)cc4C3)c2c1 [Compound 309, 4-(3-(6-fluoro-4-methylpyridin-3-yl)-7,8-dihydro-1,6-naphthyridin-6(5H)-yl)-6-methylquinazoline]",83,40,–,–,–
"COc1ccc2nc(C)nc(N3CCc4ncc(-c5cc(F)ccc5C)cc4C3)c2c1 [Compound 313, 4-(3-(5-fluoro-2-methylphenyl)-7,8-dihydro-1,6-naphthyridin-6(5H)-yl)-6-methoxy-2-methylquinazoline]",52,4360,–,–,–
"Fc1ccc2ncnc(N3CCc4ncc(Nc5ccncc5F)cc4C3)c2c1 [Compound 315, N-(3-fluoropyridin-4-yl)-6-(6-fluoroquinazolin-4-yl)-5,6,7,8-tetrahydro-1,6-naphthyridin-3-amine]",81,10,–,–,–
"Cc1ccc2nc(C)nc(N3CCc4ncc(-c5cnc(F)cc5C)cc4C3)c2c1 [Compound 318, 4-(3-(6-fluoro-4-methylpyridin-3-yl)-7,8-dihydro-1,6-naphthyridin-6(5H)-yl)-2,6-dimethylquinazoline]",92,70,–,–,–
"Fc1ccc2ncnc(N3CCc4ncc(N5CCc6ncccc65)cc4C3)c2c1 [Compound 319, 4-(3-(2,3-dihydro-1H-pyrrolo[3,2-b]pyridin-1-yl)-7,8-dihydro-1,6-naphthyridin-6(5H)-yl)-6-fluoroquinazoline]",74,30,–,–,–
Nc1c2c(nc3ccccc13)CCCC2 [tacrine],–,–,about 30 % of patients,–,–
CCCCCCOc1nsnc1C1=CCCN(C)C1 [xanomeline],–,–,–,active in animal models,reduce psychotic behavioral symptoms

# Further compounds by falling EC50 (human mAChR M4), results first:
Emax at 30 µM (human mAChR M4) [%],EC50 (human mAChR M4) [nM],Compound,elevated liver transaminases observed in patients [1],activity in animal models with profiles similar to known antipsychotic drugs [2],"effect on psychotic behavioral symptoms (delusions, suspiciousness, vocal outbursts, hallucinations) [3]"
91,9200,"Cc1nc(N2CCc3ncc(-c4cc(F)ccc4C)cc3C2)c2cc(Cl)ccc2n1 [Compound 303, 6-chloro-4-(3-(5-fluoro-2-methylphenyl)-7,8-dihydro-1,6-naphthyridin-6(5H)-yl)-2-methylquinazoline]",–,–,–
77,4670,"COc1ccc2nc(C)nc(N3CCc4ncc(-c5ccccc5C)cc4C3)c2c1 [Compound 314, 6-methoxy-2-methyl-4-(3-(o-tolyl)-7,8-dihydro-1,6-naphthyridin-6(5H)-yl)quinazoline]",–,–,–
91,2800,"Cc1ccc2nc(C)nc(N3CCc4ncc(-c5cc(F)ccc5C)cc4C3)c2c1 [Compound 317, 4-(3-(5-fluoro-2-methylphenyl)-7,8-dihydro-1,6-naphthyridin-6(5H)-yl)-2,6-dimethylquinazoline]",–,–,–
93,1600,"Cc1ccc2nc(C)nc(N3CCc4ncc(-c5ccccc5C)cc4C3)c2c1 [Compound 316, 2,6-dimethyl-4-(3-(o-tolyl)-7,8-dihydro-1,6-naphthyridin-6(5H)-yl)quinazoline]",–,–,–
77,180,"Cc1nc(N2CCc3ncc(-c4cnc(F)cc4C)cc3C2)c2cc(Cl)ccc2n1 [Compound 311, 6-chloro-4-(3-(6-fluoro-4-methylpyridin-3-yl)-7,8-dihydro-1,6-naphthyridin-6(5H)-yl)-2-methylquinazoline]",–,–,–
76,150,"COc1ccc2nc(C)nc(N3CCc4ncc(-c5cnc(F)cc5C)cc4C3)c2c1 [Compound 312, 4-(3-(6-fluoro-4-methylpyridin-3-yl)-7,8-dihydro-1,6-naphthyridin-6(5H)-yl)-6-methoxy-2-methylquinazoline]",–,–,–
92,130,"Cc1nc(N2CCc3ncc(-c4cnc(F)cc4C)cc3C2)c2cc(F)ccc2n1 [Compound 305, 6-fluoro-4-(3-(6-fluoro-4-methylpyridin-3-yl)-7,8-dihydro-1,6-naphthyridin-6(5H)-yl)-2-methylquinazoline]",–,–,–
71,110,"COc1ccc2ncnc(N3CCc4ncc(-c5cnc(F)cc5C)cc4C3)c2c1 [Compound 308, 4-(3-(6-fluoro-4-methylpyridin-3-yl)-7,8-dihydro-1,6-naphthyridin-6(5H)-yl)-6-methoxyquinazoline]",–,–,–
95,80,"Cc1cc(F)ncc1-c1cnc2c(c1)CN(c1ncnc3ccc(F)cc13)CC2 [Compound 304, 6-fluoro-4-(3-(6-fluoro-4-methylpyridin-3-yl)-7,8-dihydro-1,6-naphthyridin-6(5H)-yl)quinazoline]",–,–,–
86,60,"Cc1cc(F)ncc1-c1cnc2c(c1)CN(c1ncnc3ccc(Cl)cc13)CC2 [Compound 310, 6-chloro-4-(3-(6-fluoro-4-methylpyridin-3-yl)-7,8-dihydro-1,6-naphthyridin-6(5H)-yl)quinazoline]",–,–,–
